“And” between values parts separate entries of the source, which are not always exact repeats. Equal values may be shown once.
Test system: OVCAR-5 complex spheroids with HUVEC/MSC, viability, % test/control
Test: Anticancer human tumor OVCAR-5 cell line growth inhibition [AhR];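 also: spheroids exposed to compounds for 7 days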;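 as to viability, T/C: 100% = DMSO vehicle control wells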
Details: for viability, T/C: stronger effect = lower value
From the text: Multicellular complex tumor spheroid response to aryl hydrocarbon receptor antagonists in combination with a variety of drugs and investigational agents in selected tumor cell lines
The current study was undertaken to assess response to aryl hydrocarbon receptor antagonists in combination with standard-of-care drugs and investigational agents in solid tumor complex spheroid models. Complex spheroids include a stromal component modeled by human endothelial cells (HUVEC) and fibroblasts modeled by human mesenchymal stem cells (MSCs). The concentration ranges selected for each drug and investigational agent were based upon clinically achievable concentrations if the clinical Cmax of the agent was known.
Compounds. The drugs and investigational agents: BAY 2416964 (NSC825713), GNF351 (NSC835774), CH-223191 (NSC835775), CPI-455 (NSC825282), aza-TdCyd (NSC777586), decitabine (NSC127716), belinostat (NSC758774), entinostat (NSC756642), pevonedistat (NSC761192), tazemetostat (NSC777109), talazoparib (NSC765396), olaparib (NSC753686), selinexor (NSC780203), nedisertib (M3814, NSC802822), bortezomib (NSC756655), venetoclax (NSC766270), doxorubicin (NSC123127), elimusertib (BAY189344, NSC800525), ceralasertib (AZD6738, NSC777638), TAK-243 (NSC785004), alisertib (NSC759677), etoposide (NSC141540), topotecan (NSC609699), eribulin (NSC707389), gemcitabine (NSC613327), carboplatin (NSC241240), cisplatin (NSC119875), and SN-38 (NSC673596) were obtained from the National Cancer Institute (NCI) Developmental Therapeutics Program Chemical Repository (32). The FDA-approved anticancer drug set is available from the Developmental Therapeutics Program at https://dtp.cancer.gov/organization/dscb/obtaining/available plates.htm. […] The stock solutions were prepared in dimethyl sulfoxide (DMSO, Sigma-Aldrich, St. Louis, MO, cat. D2650), except for the platinum compounds which were prepared in saline (Quality Biological, Gaithersburg, MD, cat. 114-055-101), at 800-fold the tested concentration and stored at -70 degrees C prior to their use. All drugs and investigational agents were tested over a range starting from a high concentration at or near the clinical Cmax and decreasing in half-log increments. If the clinical Cmax for an agent had not been determined, the highest concentration tested was 10 microM (Table 1).
Cell Culture. All cells were maintained in an incubator at 37 degrees C and 5% CO2 with 95% humidity. The PDC lines were cultured according to standard operating procedures established by the NCI PDMR (https://pdmr.cancer.gov). Briefly, all PDCs were thawed and cultured in Matrigel-coated flasks prepared with a working solution of 1X Ham's F-12 nutrient mix, without supplementation (Invitrogen, Waltham, MA, cat. 11765054), 100 U/mL penicillin-streptomycin (Invitrogen, cat. 15140122), and 2.5% Matrigel (Corning Inc., Corning, NY, cat. 354248) for the first three passages. All PDCs were cultured in complete DMEM/F-12 media containing advanced DMEM/F-12 (Invitrogen, cat. 12634028), 4.9% defined fetal bovine serum, heat inactivated (HyClone Laboratories Inc., Logan, UT, cat. SH30070.03HI), 389 ng/mL hydrocortisone (Sigma-Aldrich, cat. H4001), 9.7 ng/mL human EGF recombinant protein (Invitrogen, cat. PHG0313), 23.4 microg/mL adenine (Sigma-Aldrich, cat. A2786), 97.3 U/mL penicillin-streptomycin (Invitrogen, cat. 15140122), 1.9 mM L-glutamine (Invitrogen, cat. 25030081), and 9.7 microM Y-27632 dihydrochloride (Tocris Bioscience, Bristol, United Kingdom, cat. 1254). The PDCs were cultured in complete DMEM/F12 media without 10 microM Y-27632 dihydrochloride for at least two passages prior to the screen. The established cell lines NCI-H1341 and […] were cultured in DMEM/F-12, HEPES (Invitrogen, cat. 11330032), 5% defined fetal bovine serum (HyClone Laboratories Inc., cat. SH30070.03), ITS premix universal culture supplement [insulin (5 microg/mL), transferrin (5 microg/mL), and selenious acid (5 ng/mL)] […]

[1] = curve of first compound, second compound 0.1 µM
[2] = curve of first compound, second compound 0.316 µM
[3] = curve of first compound, second compound 1 µM
[4] = curve of first compound, second compound 3.16 µM
[5] = curve of first compound, second compound 10 µM
[6] = second compound 0.1 µM, first compound 0.0316 µM
[7] = second compound 0.1 µM, first compound 0.1 µM
[8] = second compound 0.1 µM, first compound 0.316 µM
[9] = second compound 0.1 µM, first compound 1 µM
[10] = second compound 0.316 µM, first compound 0.0316 µM
[11] = second compound 0.316 µM, first compound 0.1 µM
[12] = second compound 0.316 µM, first compound 0.316 µM
[13] = second compound 0.316 µM, first compound 1 µM
[14] = second compound 1 µM, first compound 0.0316 µM
[15] = second compound 1 µM, first compound 0.1 µM
[16] = second compound 1 µM, first compound 0.316 µM
[17] = second compound 1 µM, first compound 1 µM
[18] = second compound 3.16 µM, first compound 0.0316 µM
[19] = second compound 3.16 µM, first compound 0.1 µM
[20] = second compound 3.16 µM, first compound 0.316 µM
[21] = second compound 3.16 µM, first compound 1 µM
[22] = second compound 10 µM, first compound 0.0316 µM
[23] = second compound 10 µM, first compound 0.1 µM
[24] = second compound 10 µM, first compound 0.316 µM
[25] = second compound 10 µM, first compound 1 µM

| Compound | IC50 [1] [µM] | IC50 [2] [µM] | IC50 [3] [µM] | IC50 [4] [µM] | IC50 [5] [µM] | viability, T/C [6] [%] | viability, T/C [7] [%] | viability, T/C [8] [%] | viability, T/C [9] [%] | viability, T/C [10] [%] | viability, T/C [11] [%] | viability, T/C [12] [%] | viability, T/C [13] [%] | viability, T/C [14] [%] | viability, T/C [15] [%] | viability, T/C [16] [%] | viability, T/C [17] [%] | viability, T/C [18] [%] | viability, T/C [19] [%] | viability, T/C [20] [%] | also measured |
| --- | --- | --- | --- | --- | --- | --- | --- | --- | --- | --- | --- | --- | --- | --- | --- | --- | --- | --- | --- | --- | --- |
| COc1ccc([C@@H](O)c2cc(-c3ncnc4cc(N5CCOCC5)ccc34)c(F)cc2Cl)nn1 + Cc1ccccc1N=Nc1ccc(NC(=O)c2ccnn2C)c(C)c1 | 2.91 | 2.98 | 3.75 | 4.54 | 3.23 | 102 | 101 | 95.5 | 76.3 | 104 | 102 | 97.5 | 76.8 | 109 | 107 | 99.5 | 87.5 | 113 | 106 | 98.9 | viability, T/C (second compound 0.1 µM, first compound 3.16 µM): 48.4%; viability, T/C (second compound 0.1 µM, first compound 10 µM): 24.1%; viability, T/C (second compound 0.316 µM, first compound 3.16 µM): 49.1%; viability, T/C (second compound 0.316 µM, first compound 10 µM): 27.6%; viability, T/C (second compound 1 µM, first compound 3.16 µM): 53.5%; viability, T/C (second compound 1 µM, first compound 10 µM): 26%; viability, T/C [21]: 85.1%; viability, T/C (second compound 3.16 µM, first compound 3.16 µM): 57.6%; viability, T/C (second compound 3.16 µM, first compound 10 µM): 31.6%; viability, T/C [22]: 103%; viability, T/C [23]: 98.9%; viability, T/C [24]: 96.3%; viability, T/C [25]: 76.7%; viability, T/C (second compound 10 µM, first compound 3.16 µM): 51.2%; viability, T/C (second compound 10 µM, first compound 10 µM): 22.8% |
| CCN(c1cc(-c2ccc(CN3CCOCC3)cc2)cc(C(=O)NCc2c(C)cc(C)[nH]c2=O)c1C)C1CCOCC1 |  |  |  |  |  |  |  |  |  |  |  |  |  |  |  |  |  |  |  |  | viability, T/C (compound 0.00949 µM): 104% (2×) and 101%; viability, T/C (compound 0.03 µM): 105% and 98.5% and 106%; viability, T/C (compound 0.0949 µM): 99.6% and 99.7% and 103%; viability, T/C (compound 0.3 µM): 101% and 100% and 105%; viability, T/C (compound 0.949 µM): 99.6% and 96.8% and 104%; viability, T/C (compound 3 µM): 101% and 96.4% and 104%; IC50 (curve of compound): > 3 µM |
| Nc1ncn(C2CC(O)C(CO)O2)c(=O)n1 (configuration not stated) + CC(CO)NC(=O)c1cc(-c2ccc(Cl)cc2)nn(-c2cnn(C)c2)c1=O | > 1 | > 1 | > 1 | > 1 | > 1 | 98 | 88.5 | 72.6 | 62.4 | 99 | 83.2 | 70.8 | 62 | 109 | 91.6 | 71.3 | 66.4 | 97.9 | 83.7 | 70.6 | viability, T/C (second compound 0.1 µM, first compound 0.00316 µM): 107%; viability, T/C (second compound 0.1 µM, first compound 0.01 µM): 106%; viability, T/C (second compound 0.316 µM, first compound 0.00316 µM): 107%; viability, T/C (second compound 0.316 µM, first compound 0.01 µM): 107%; viability, T/C (second compound 1 µM, first compound 0.00316 µM): 116%; viability, T/C (second compound 1 µM, first compound 0.01 µM): 114%; viability, T/C (second compound 3.16 µM, first compound 0.00316 µM): 105%; viability, T/C (second compound 3.16 µM, first compound 0.01 µM): 99.4%; viability, T/C [21]: 59.2%; viability, T/C (second compound 10 µM, first compound 0.00316 µM): 97.6%; viability, T/C (second compound 10 µM, first compound 0.01 µM): 99.9%; viability, T/C [22]: 97.4%; viability, T/C [23]: 88.4%; viability, T/C [24]: 72.9%; viability, T/C [25]: 64.2% |

From PubChem BioAssay AID1919015 (Molecular Pharmacology Branch, DTP, NCI, 2023)
